pEC50: −log10 of the molar value. Where two headings read alike, the source gives them in different places.
Legend:
[1] = tested on: HCV genotype 1b subgenomic Huh 5-2 replicon system; assay: Antiviral effect on HCV 1b subgenomic replicon replication in Huh 5-2 cells; assay type: cell-based, Hepatitis C virus
Procedure: (§1) The antiviral activity of conjugated compounds 3a–g, 7a–e, 9a,b,d–f, and 11b,e,f in the HCV genotype 1b subgenomic Huh 5-2 replicon system was evaluated according to established procedures. On the basis of the dose-response curves that were obtained, the concentration of a compound that inhibited virus replication by 50% (i.e., EC50) and the concentration of compound that reduced host cell metabolism by 50% (i.e., CC50) were obtained. These values subsequently allowed us to calculate the selectivity index (i.e., SI = CC50/EC50), which is a measure for the therapeutic window of the compound in an assay system. […] The observed antiviral effect of other compounds was most likely related mainly to the pleiotropic or aspecific effect on the host cell.

[2] = Anti-metabolic effect on host cell metabolism (MTS method) in Huh 5-2 replicon cells; assay type: cell-based; conditions: human, Huh 5-2 cells (HCV genotype 1b subgenomic replicon), concentration reducing host cell metabolism by 50%, average of triplicate determinations
Procedure: as §1

[3] = tested on: HCV genotype 1b subgenomic Huh 5-2 replicon system; parameters: method as in PMID 17977606; conditions: HCV 1b subgenomic replicon in Huh 5-2 cells; reference known compounds; ref [11]; cited from earlier work
Huh 5-2 cells [4] = tested on: Huh 5-2 cells; parameters: method as in PMID 17977606; conditions: host cell metabolism, MTS method, reference known compounds, ref [11]; cited from earlier work
Huh 5-2 cells [5] = assay: Anti-metabolic effect on host cell metabolism (MTS method) in Huh 5-2 replicon cells; assay type: cell-based; conditions: concentration reducing host cell metabolism by 50%, average of triplicate determinations
Procedure: as §1

SMILES: O=c1oc2ccccc2cc1CSc1ncc[nH]1 [Compound 3a, 2-[(Coumarin-3’-yl)methylthio]imidazole]
- pEC50 ([1]; Hepatitis C virus, Huh-5-2): 4.52
- CC50 [2]: 122 µM
- melting point: 252 to 252.8 °C

SMILES: O=c1oc2ccc(F)cc2cc1CSc1ncc[nH]1 [Compound 3b, 2-[(6′-Fluorocoumarin-3′-yl)methylthio]imidazole]
- pEC50 ([1]; Hepatitis C virus, Huh-5-2): 5.14
- CC50 [2]: 83 µM
- melting point: 258.6 to 259.4 °C

SMILES: O=c1oc2ccc(Cl)cc2cc1CSc1ncc[nH]1 [Compound 3c, 2-[(6′-Chlorocoumarin-3′-yl)methylthio]imidazole]
- pEC50 ([1]; Hepatitis C virus, Huh-5-2): 5.01
- CC50 [2]: 85 µM
- melting point: 266.2 to 270 °C

SMILES: O=c1oc2ccc(Br)cc2cc1CSc1ncc[nH]1 [Compound 3d, 2-[(6′-Bromocoumarin-3′-yl)methylthio]imidazole]
- pEC50 ([1]; Hepatitis C virus, Huh-5-2): 5.29
- CC50 [2]: 75 µM
- melting point: 276.8 to 277.4 °C

SMILES: COc1cccc2cc(CSc3ncc[nH]3)c(=O)oc12 [Compound 3e, 2-[(8′-Methoxycoumarin-3′-yl)methylthio]imidazole]
- pEC50 ([1]; Hepatitis C virus, Huh-5-2): 5.08
- CC50 [2]: 173 µM
- melting point: 269.8 to 270.6 °C

SMILES: Cn1ccnc1SCc1cc2ccccc2oc1=O [Compound 3f, 1-Methyl-2-[(coumarin-3′-yl)methylthio]imidazole]
- pEC50 ([1]; Hepatitis C virus, Huh-5-2): 5.17
- CC50 [2]: 49 µM
- melting point: 244.2 to 244.8 °C

SMILES: Cn1ccnc1SCc1cc2cc(Cl)ccc2oc1=O [Compound 3g, 1-Methyl-2-[(6′-chlorocoumarin-3′-yl)methylthio]imidazole]
- pEC50 ([1]; Hepatitis C virus, Huh-5-2): 4.82
- CC50 [2]: 75 µM
- melting point: 256.2 to 257.2 °C

SMILES: O=c1oc2ccccc2cc1CSc1nccn1[C@@H]1O[C@H](CO)[C@@H](O)[C@H]1O [Compound 7a, 1-(β-D-Ribofuranos-1″-yl)-2-[(coumarin-3′-yl)methylthio]imidazole]
- pEC50 ([1]; Hepatitis C virus, Huh-5-2): 4.23
- CC50 [2]: 128 µM
- melting point: 164.6 to 165.4 °C

SMILES: O=c1oc2ccc(F)cc2cc1CSc1nccn1[C@@H]1O[C@H](CO)[C@@H](O)[C@H]1O [Compound 7b, 1-(β-D-Ribofuranos-1″-yl)-2-[(6′-fluorocoumarin-3′-yl)methylthio]imidazole]
- pEC50 ([1]; Hepatitis C virus, Huh-5-2): 4.59
- CC50 [2]: 122 µM
- melting point: 171.2 to 172.4 °C

SMILES: O=c1oc2ccc(Cl)cc2cc1CSc1nccn1[C@@H]1O[C@H](CO)[C@@H](O)[C@H]1O [Compound 7c, 1-(β-D-Ribofuranos-1″-yl)-2-[(6′-chlorocoumarin-3′-yl)methylthio]imidazole]
- pEC50 ([1]; Hepatitis C virus, Huh-5-2): 4.85
- CC50 [2]: 85 µM
- melting point: 178.8 to 179.6 °C

SMILES: O=c1oc2ccc(Br)cc2cc1CSc1nccn1[C@@H]1O[C@H](CO)[C@@H](O)[C@H]1O [Compound 7d, 1-(β-D-Ribofuranos-1″-yl)-2-[(6′-bromocoumarin-3′-yl)methylthio]imidazole]
- pEC50 ([1]; Hepatitis C virus, Huh-5-2): 4.72
- CC50 [2]: 107 µM
- melting point: 188.8 to 189.4 °C

SMILES: COc1cccc2cc(CSc3nccn3[C@@H]3O[C@H](CO)[C@@H](O)[C@H]3O)c(=O)oc12 [Compound 7e, 1-(β-D-Ribofuranos-1″-yl)-2-[(8′-methoxycoumarin-3′-yl)methylthio]imidazole]
- pEC50 ([1]; Hepatitis C virus, Huh-5-2): 4.47
- CC50 [2]: 119 µM
- melting point: 169.6 to 170.4 °C

SMILES: O=c1oc2ccccc2cc1CSc1nc2c(=O)[nH]cnc2n1[C@@H]1O[C@H](CO)[C@@H](O)[C@H]1O [Compound 9a, 8-[(Coumarin-3′-yl)methylthio]inosine]
- pEC50 ([1]; Hepatitis C virus, Huh-5-2): 4.21
- CC50 [2]: 109 µM

SMILES: O=c1oc2ccc(F)cc2cc1CSc1nc2c(=O)[nH]cnc2n1[C@@H]1O[C@H](CO)[C@@H](O)[C@H]1O [Compound 9b, 8-[(6′-Fluorocoumarin-3′-yl)methylthio]inosine]
- pEC50 ([1]; Hepatitis C virus, Huh-5-2): 4.14
- CC50 [2]: 105 µM

SMILES: O=c1oc2ccc(Br)cc2cc1CSc1nc2c(=O)[nH]cnc2n1[C@@H]1O[C@H](CO)[C@@H](O)[C@H]1O [Compound 9d, 8-[(6′-Bromocoumarin-3′-yl)methylthio]inosine]
- pEC50 ([1]; Hepatitis C virus, Huh-5-2): 4.15
- CC50 [2]: 93 µM

SMILES: COc1cccc2cc(CSc3nc4c(=O)[nH]cnc4n3[C@@H]3O[C@H](CO)[C@@H](O)[C@H]3O)c(=O)oc12 [Compound 9e, 8-[(8′-Methoxycoumarin-3′-yl)methylthio]inosine]
- pEC50 ([1]; Hepatitis C virus, Huh-5-2): 3.99
- CC50 [2]: 102 µM

SMILES: Cc1ccc2oc(=O)c(CSc3nc4c(=O)[nH]cnc4n3[C@@H]3O[C@H](CO)[C@@H](O)[C@H]3O)cc2c1 [Compound 9f, 8-[(6′-Methylcoumarin-3′-yl)methylthio]inosine]
- pEC50 ([1]; Hepatitis C virus, Huh-5-2): 3.97
- CC50 [2]: 106 µM

SMILES: Nc1nc2c(nc(SCc3cc4cc(F)ccc4oc3=O)n2[C@@H]2O[C@H](CO)[C@@H](O)[C@H]2O)c(=O)[nH]1 [Compound 11b, 8-[(6′-Fluorocoumarin-3′-yl)methylthio]guanosine]
- pEC50 ([1]; Hepatitis C virus, Huh-5-2): 3.99
- CC50 [2]: 102 µM

SMILES: COc1cccc2cc(CSc3nc4c(=O)[nH]c(N)nc4n3[C@@H]3O[C@H](CO)[C@@H](O)[C@H]3O)c(=O)oc12 [Compound 11e, 8-[(8′-Methoxycoumarin-3′-yl)methylthio]guanosine]
- pEC50 ([1]; Hepatitis C virus, Huh-5-2): 4.00
- CC50 [2]: 99 µM

SMILES: Cc1ccc2oc(=O)c(CSc3nc4c(=O)[nH]c(N)nc4n3[C@@H]3O[C@H](CO)[C@@H](O)[C@H]3O)cc2c1 [Compound 11f, 8-[(6′-Methylcoumarin-3′-yl)methylthio]guanosine]
- pEC50 ([1]; Hepatitis C virus, Huh-5-2): 3.99
- CC50 [2]: 103 µM

SMILES: O=c1oc2ccccc2cc1CSc1nc2ccccc2[nH]1 [Compound 12a]
- pEC50 [3]: 4.57
- CC50 (Huh 5-2 cells [4]): 90 µM

SMILES: O=c1oc2ccc(Br)cc2cc1CSc1nc2ccccc2[nH]1 [Compound 12d]
- pEC50 [3]: 5.40
- CC50 (Huh 5-2 cells [4]): 42 µM

SMILES: COc1cccc2cc(CSc3nc4ccccc4[nH]3)c(=O)oc12 [Compound 12e]
- pEC50 [3]: 5.00
- CC50 (Huh 5-2 cells [4]): 27 µM

SMILES: O=c1ccc2ccccc2o1 [coumarin]
- pEC50 ([1]; Hepatitis C virus, Huh-5-2): < 3.82
- CC50 [2]: > 500 µM

SMILES: c1c[nH]cn1 [imidazole]
- pEC50 ([1]; concentration inhibiting virus replication by 50%, real-time quantitative RT-PCR, HCV 1b Huh 5-2 replicon, average of triplicate determinations, read-out: EC50): < 3.82
- CC50 (Huh 5-2 cells [5]): > 500 µM
